Counter-ions that a name gives are not always drawn.

IC50 and toxicity in cells data for 24 molecules are collected here from patent publication US10968203B2, “Pyrimidinyl-pyridyloxy-naphthyl compounds and methods of treating IRE1-related diseases and disorders” (Genentech, Inc., priority 2017, dated 2021).

The first data set relates to XBP1s-luc 293 LUC. As to the kind of experiment: cellular PD assay, XBP1s-LUC reporter (Example 903). The data set is classed as cell-based. The following applies: Table 1; read-out: XBP1s-luc 293 LUC (IC50). In short, it runs like this: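 A luciferase fusion, in frame and expressed only when the XBP1 transcript is spliced, served as the readout of cellular IRE1α activity in an XBP1-Luc reporter line.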
For the molecule `Cc1cc(S(=O)(=O)Nc2cccc3c(Oc4ncccc4-c4ccnc(N[C@H]5CCCNC5)n4)c(C)ccc23)sn1` [Example 168, (S)-3-Methyl-N-(6-methyl-5-((3-(2-(piperidin-3-ylamino)pyrimidin-4-yl)pyridin-2-yl)oxy)naphthalen-1-yl)isothiazole-5-sulfonamide], the IC50 stood at 172 nM.
On the same count and under the same terms, in the case of `Cc1ccc2c(NC(=O)C3CC(F)(F)C3)cccc2c1Oc1ncccc1-c1ccnc(N[C@H]2CCCNC2)n1` [Example 219, (S)-3,3-Difluoro-N-(6-methyl-5-(3-(2-(piperidin-3-ylamino)pyrimidin-4-yl)pyridin-2-yloxy)naphthalen-1-yl)cyclobutanecarboxamide] it was 119 nM; in that of `Cc1ccc2c(Oc3ccccn3)cccc2c1Oc1ncccc1-c1ccnc(N[C@H]2CCCNC2)n1` [Example 239, (S)-4-(2-((2-Methyl-5-(pyridin-2-yloxy)naphthalen-1-yl)oxy)pyridin-3-yl)-N-(piperidin-3-yl)pyrimidin-2-amine], 245 nM; in that of `CCCS(=O)(=O)Nc1cc(C)c(Oc2ncccc2-c2ccnc(N[C@H]3CCCNC3)n2)c2ccccc12` [Example 164, (S)—N-(3-Methyl-4-((3-(2-(piperidin-3-ylamino)pyrimidin-4-yl)pyridin-2-yl)oxy)naphthalen-1-yl)propane-1-sulfonamide], 147 nM.
On the same count and under the same terms, with `Cc1ccc2c(NS(=O)(=O)Cc3ccccc3F)c(F)ccc2c1Oc1ncccc1-c1ccnc(N[C@H]2CCCNC2)n1` [Example 391, (S)—N-(2-Fluoro-6-methyl-5-((3-(2-(piperidin-3-ylamino)pyrimidin-4-yl)pyridin-2-yl)oxy)naphthalen-1-yl)-1-(2-fluorophenyl)methanesulfonamide] the figure was 2.77 nM; with `Cc1ccc2c(NS(=O)(=O)CC(C)C)c(F)ccc2c1Oc1ncccc1-c1ccnc(N[C@@H]2CNC[C@H](C)C2)n1` [Example 369, N-(2-Fluoro-6-methyl-5-((3-(2-(((3S,5R)-5-methylpiperidin-3-yl)amino)pyrimidin-4-yl)pyridin-2-yl)oxy)naphthalen-1-yl)-2-methylpropane-1-sulfonamide], 19.4 nM.
`Cc1ccc2c(NCC[C@H]3CC3(F)F)cccc2c1Oc1ncccc1-c1ccnc(N[C@H]2CCCNC2)n1` (single isomer, unassigned) [Example 292]: the IC50 is 294 nM.
On to `Cc1ccc2c(NS(=O)(=O)Cc3cccc(F)c3F)c(F)ccc2c1Oc1ncccc1-c1ccnc(N[C@H]2CCCNC2)n1` [Example 189, (S)-1-(2,3-Difluorophenyl)-N-(2-fluoro-6-methyl-5-((3-(2-(piperidin-3-ylamino)pyrimidin-4-yl)pyridin-2-yl)oxy)naphthalen-1-yl)methanesulfonamide], for which the IC50 is 5.07 nM.
As for `Cc1ccc2c(NC(=O)CC3CCCCC3)c(F)ccc2c1Oc1ncccc1-c1ccnc(N[C@@H]2CNC[C@H](C)C2)n1` [Example 366, 2-Cyclohexyl-N-(2-fluoro-6-methyl-5-((3-(2-(((3S,5R)-5-methylpiperidin-3-yl)amino)pyrimidin-4-yl)pyridin-2-yl)oxy)naphthalen-1-yl)acetamide], the IC50 came to 101 nM.
Still for that read-out and setting: with `CC[C@@H](O)CNc1cccc2c(Oc3ncccc3-c3ccnc(N[C@H]4CCCNC4)n3)c(C)ccc12` [Example 312, (R)-1-((6-Methyl-5-((3-(2-((S)-piperidin-3-ylamino)pyrimidin-4-yl)pyridin-2-yl)oxy)naphthalen-1-yl)amino)butan-2-ol] the figure was 27.4 nM; with `Cc1ccc2c(NS(=O)(=O)CC(C)(C)C)c(F)ccc2c1Oc1ncccc1-c1ccnc(N[C@H]2CCCNC2)n1` [Example 350, (S)—N-(2-Fluoro-6-methyl-5-((3-(2-(piperidin-3-ylamino)pyrimidin-4-yl)pyridin-2-yl)oxy)naphthalen-1-yl)-2,2-dimethylpropane-1-sulfonamide], 37.4 nM; with `Cc1ccc2c(NS(=O)(=O)C3CCCCC3)c(F)ccc2c1Oc1ncccc1-c1ccnc(N[C@@H]2CNC[C@H](C)C2)n1` [Example 317, N-(2-Fluoro-6-methyl-5-((3-(2-(((3S,5R)-5-methylpiperidin-3-yl)amino)pyrimidin-4-yl)pyridin-2-yl)oxy)naphthalen-1-yl)cyclohexanesulfonamide], 17.6 nM.
For the molecule `Cc1ccc2c(NCc3cnn(C)c3)cccc2c1Oc1ncccc1-c1ccnc(N[C@H]2CCCNC2)n1` [Example 265, (S)-4-(2-((2-Methyl-5-(((1-methyl-1H-pyrazol-4-yl)methyl)amino)naphthalen-1-yl)oxy)pyridin-3-yl)-N-(piperidin-3-yl)pyrimidin-2-amine], the IC50 worked out at 393 nM.
The same measure, in the same setting: with `Cc1ccc2c(NC[C@@H]3CCOC3)cccc2c1Oc1ncccc1-c1ccnc(N[C@H]2CCCNC2)n1` (single isomer, unassigned) [Example 351] the figure was 500 nM.

Staying with this data set, now noted: Table 2; read-out: XBP1s-luc 293 LUC (IC50).
As for `Cc1c(F)c(NS(=O)(=O)Cc2ccccc2)c2ccccc2c1Oc1ncccc1-c1ccnc(N[C@H]2CCCNC2)n1` [Example 480, (S)—N-(2-Fluoro-3-methyl-4-((3-(2-(piperidin-3-ylamino)pyrimidin-4-yl)pyridin-2-yl)oxy)naphthalen-1-yl)-1-phenylmethanesulfonamide], the IC50 worked out at 7 nM.
Same read-out and setting: with `Cc1ccc2c(NS(=O)(=O)Cc3cccc(C#N)c3)c(F)ccc2c1Oc1ncccc1-c1ccnc(N[C@H]2CCCNC2)n1` [Example 425, (S)-1-(3-Cyanophenyl)-N-(2-fluoro-6-methyl-5-((3-(2-(piperidin-3-ylamino)pyrimidin-4-yl)pyridin-2-yl)oxy)naphthalen-1-yl)methanesulfonamide hydrochloride] the figure was 16 nM.
The same measure, in the same setting: with `Cc1ccc2c(NS(=O)(=O)C[C@H]3CCCO3)c(F)ccc2c1Oc1ncccc1-c1ccnc(N[C@H]2CCCNC2)n1` (single isomer, unassigned) [Example 417, hydrochloride] the figure was 74 nM.
The same measure, in the same setting: in the case of `COCCCNc1cccc2c(Oc3ncccc3-c3ccnc(N[C@H]4CCCNC4)n3)c(C)ccc12` [Example 430, 4-[2-[[5-(3-Methoxypropylamino)-2-methyl-1-naphthyl]oxy]-3-pyridyl]-N-[(3S)-3-piperidyl]pyrimidin-2-amine hydrochloride] it was 275 nM; in that of `Cc1ccc2c(NS(=O)(=O)C=C3CCC3)c(F)ccc2c1Oc1ncccc1-c1ccnc(N[C@H]2CCCNC2)n1` [Example 413, 1-Cyclobutylidene-N-[2-fluoro-6-methyl-5-[[3-[2-[[(3S)-3-piperidyl]amino]pyrimidin-4-yl]-2-pyridyl]oxy]-1-naphthyl]methanesulfonamide hydrochloride], 50 nM.
Take `Cc1ccc2c(NS(=O)(=O)N(C)CC(F)(F)F)c(F)ccc2c1Oc1ncccc1-c1ccnc(N[C@@H]2CNC[C@@H](F)C2)n1` (single isomer, unassigned) [Example 500, hydrochloride]: the IC50 was 8.7 nM.
Same read-out and setting: in the case of `Cc1ccc2c(NS(=O)(=O)CCCF)c(F)ccc2c1Oc1ncccc1-c1ccnc(N[C@H]2CCCNC2)n1` [Example 406, (S)-3-Fluoro-N-(2-fluoro-6-methyl-5-((3-(2-(piperidin-3-ylamino)pyrimidin-4-yl)pyridin-2-yl)oxy)naphthalen-1-yl)propane-1-sulfonamide hydrochloride] it was 31 nM; in that of `Cc1ccc2c(NS(=O)(=O)N3CCCC3)c(F)ccc2c1Oc1ncccc1-c1ccnc(N[C@H]2CCCNC2)n1` [Example 428, N-[2-Fluoro-6-methyl-5-[[3-[2-[[(3S)-3-piperidyl]amino]pyrimidin-4-yl]-2-pyridyl]oxy]-1-naphthyl]pyrrolidine-1-sulfonamide hydrochloride], 28 nM.
Still for that read-out and setting: with `Cc1ccc2c(NS(=O)(=O)CC(F)(F)F)c(F)ccc2c1Oc1ncccc1-c1ccnc(N[C@@H]2CNC[C@@H](F)C2)n1` (single isomer, unassigned) [Example 444, hydrochloride] the figure was 19 nM.

The subject of a further data set is cells.
Assay: not given
The conditions noted are these: high levels of 4μ8C; cited from earlier work.
Turning to `Cc1cc(=O)oc2c(C=O)c(O)ccc12` [Example 4μ8C], the toxicity in cells entry was “no measurable toxicity”.

As a reminder, the IC50 is the concentration that inhibits the measured activity by half.
